# pKd, pKi: −log10 of the molar value. Several values for one entry are separate records, joined by “and”; a condition that tells them apart may be missing. Equal values may be shown once. Read-outs that look alike come from different tables or passages of the source.
# Assays:
# [1] = biological target: T1, MT1-MMP hemopexin domain (Homo sapiens, UniProt P50281); experiment: Fluorescence polarisation competition binding assay; settings: for Ki: Binding Affinity (Ki in nM) Human ki, bicycle peptide-drug conjugates, two values given
# T1 construct: residues Cys319-Gly511 from the human gene; His6 (N); made in house; host or cells: HEK293 cells (transient, pEXPR-IBA42 vector)
# From the text: The MT1-MMP hemopexin-like repeats (also known as the MT1-MMP hemopexin domain), residues Cys319-Gly511 from the human gene, were transiently expressed in HEK293 cells as secreted N-terminally His6-tagged soluble protein, using the pEXPR-IBA42 (IBA) expression vector. Following expression, the protein was purified by Nickel-NTA affinity chromatography followed by gel filtration, and purity was checked by SDS-PAGE. Batch to batch variability was also monitored by fluorescence thermal shift experiments in the presence/absence of a hemopexin domain binding bicycle.
# (§1) Binding affinity was measured using competition assays using Fluorescence Polarisation (anisotropy).
# Fluoresceination may be performed on the N-terminal amino group of the peptide, which is separated from the bicycle core sequence by a sarcosine spacer (usually Sar5). This can be done during Fmoc solid phase synthesis or post-synthetically (after cyclisation with TBMB and purification) if the N-terminal amino group is unique to the peptide. Fluoresceination can also be performed on the C-terminus, usually on a Lysine introduced as the first C-terminal residue, which is then separated from the bicycle core sequence by a sarcosine spacer (usually Sar6). Thus, N-terminal tracers can have a molecular format described as Fluo-Gly-Sar5-A(BicycleCoreSequence), and (BicycleCoreSequence)-A-Sar6-K(Fluo) for a C-terminally fluoresceinated construct. Fluorescent tracers used in the Examples are A-(17-69)-A-Sar6-K(Fluo), A-(17-69-07)-A-Sar6-K(Fluo), and A-(17-69-12)-A-Sar6-K(Fluo).
# (§2) Here, a pre-formed complex of PEX with the fluorescent PEX-binding tracer is titrated with free, non-fluoresceinated bicyclic peptide. Since all 17-69-based peptides are expected to bind at the same site, the titrant will displace the fluorescent tracer from PEX. Dissociation of the complex can be measured quantitatively, and the Kd of the competitor (titrant) to the target protein determined. The advantage of the competition method is that the affinities of non-fluoresceinated bicyclic peptides can be determined accurately and rapidly.
# (§3) Subsequently, the non-fluorescent competitor bicyclic peptide (usually just the bicycle core sequence) is titrated, such that it displaces the fluorescent tracer from the target protein. The displacement of the tracer is measured and associated with a drop in fluorescence polarisation. The drop in fluorescence polarisation is proportional to the fraction of target protein bound with the non-fluorescent titrant, and thus is a measure of the affinity of titrant to target protein.
# (§4) The raw data is fit to the analytical solution of the cubic equation that describes the equilibria between fluorescent tracer, titrant, and binding protein. The fit requires the value of the affinity of fluorescent tracer to the target protein, which can be determined separately by direct binding FP experiments (see previous section).
# [2] = biological target: rat/mouse MT1-MMP (Mus musculus, UniProt P53690); experiment: Binding affinity to rat/mouse MT1-MMP, measured as previously described; settings: Binding Affinity (Ki in nM) rat/mouse ki, bicycle peptide-drug conjugates, two values given
# Experimental: as §1, §2, §3
# as §4, with “section). The curve fitting was performed using Sigmaplot 12.0 and used an adapted version of the equation described by Zhi-Xin Wang (FEBS Letters 360 (1995) 111-114).” for “section).”
# The in vitro binding affinities of the bicycle peptide-drug conjugates prepared above were measured for MT1-MMP as previously described herein.
# [3] = Plasma stability in human serum; type: in vitro ADME; settings: 4 μm concentration, read-out: T1/2 in human serum
# From the text: (§5) The stability appears to be slightly greater than that of the corresponding conjugates in which the peptide is linked to the scaffold by three thioether linkages.
# [4] = Plasma stability in mouse serum; type: in vitro ADME; settings: 4 μm concentration, read-out: T1/2 in mouse serum
# From the text: as §5
# [5] = human MT1-MMP, bicycle peptides, read-out: Binding Affinity Ki (h)
smiles,measurement,setting,value
CC[C@H](C)[C@@H]([C@@H](CC(=O)N1CCC[C@H]1[C@H](OC)[C@@H](C)C(=O)N[C@H](C)[C@@H](O)c1ccccc1)OC)N(C)C(=O)[C@@H](NC(=O)[C@H](C(C)C)N(C)C(=O)OCc1ccc(NC(=O)[C@H](CCCNC(N)=O)NC(=O)[C@@H](NC(=O)Cn2cc(CCC(=O)NCCC(=O)N(C)CC(=O)N(C)CC(=O)N(C)CC(=O)N(C)CC(=O)N(C)CC(=O)N(C)CC(=O)N(C)CC(=O)N(C)CC(=O)N(C)CC(=O)N(C)CC(=O)N[C@@H](C)C(=O)N[C@H]3CNCc4cc5cc(c4)CSC[C@H](NC(=O)[C@@H](C)NC(=O)[C@H](Cc4cccc6ccccc46)NC(=O)[C@H](CCC(=O)O)NC(=O)[C@H](CC(N)=O)NC(=O)[C@@H](C)NC3=O)C(=O)N[C@@H](CCC(=O)O)C(=O)N[C@@H](CC(=O)O)C(=O)N[C@@H](Cc3ccccc3)C(=O)N[C@@H](Cc3ccc(O)cc3)C(=O)N[C@@H](CC(=O)O)C(=O)N[C@@H](C(C)(C)C)C(=O)N[C@H](C(N)=O)CNC5)nn2)C(C)C)cc1)C(C)C [BT17BDC-53],Ki,[1]; human MT1-MMP,3.6 nM and 2.5 nM
same,Ki,[2],1.8 nM and 1.6 nM
same,half-life at 4 μm,[3],> 50 h
same,half-life at 4 μm,[4],> 50 h
CC[C@H](C)[C@@H]([C@@H](CC(=O)N1CCC[C@H]1[C@H](OC)[C@@H](C)C(=O)N[C@H](C)[C@@H](O)c1ccccc1)OC)N(C)C(=O)[C@@H](NC(=O)[C@H](C(C)C)N(C)C(=O)OCc1ccc(NC(=O)[C@H](CCCNC(N)=O)NC(=O)[C@@H](NC(=O)CCCC(=O)NCCC(=O)N(C)CC(=O)N(C)CC(=O)N(C)CC(=O)N(C)CC(=O)N(C)CC(=O)N(C)CC(=O)N(C)CC(=O)N(C)CC(=O)N(C)CC(=O)N(C)CC(=O)N[C@@H](C)C(=O)N[C@H]2CN(C)Cc3cc4cc(c3)CN(C)C[C@@H](C(N)=O)NC(=O)[C@H](C(C)(C)C)NC(=O)[C@H](CC(=O)O)NC(=O)[C@H](Cc3ccc(O)cc3)NC(=O)[C@H](Cc3ccccc3)NC(=O)[C@H](CC(=O)O)NC(=O)[C@H](CCC(=O)O)NC(=O)[C@H](CSC4)NC(=O)[C@@H](C)NC(=O)[C@H](Cc3cccc4ccccc34)NC(=O)[C@H](CCC(=O)O)NC(=O)[C@H](CC(N)=O)NC(=O)[C@@H](C)NC2=O)C(C)C)cc1)C(C)C [BT17BDC-68],Ki,[1]; human MT1-MMP,2.9 nM and 3.3 nM
same,Ki,[2],1.8 nM and 1.6 nM
CC[C@H](C)[C@@H]([C@@H](CC(=O)N1CCC[C@H]1[C@H](OC)[C@@H](C)C(=O)N[C@H](C)[C@@H](O)c1ccccc1)OC)N(C)C(=O)[C@@H](NC(=O)[C@H](C(C)C)N(C)C(=O)OCc1ccc(NC(=O)[C@H](CCCNC(N)=O)NC(=O)[C@@H](NC(=O)Cn2cc(CCC(=O)N[C@@H](C)C(=O)N[C@H]3CN(C)Cc4cc5cc(c4)CN(C)C[C@@H](C(N)=O)NC(=O)[C@H](C(C)(C)C)NC(=O)[C@H](CC(=O)O)NC(=O)[C@H](Cc4ccc(O)cc4)NC(=O)[C@H](Cc4ccccc4)NC(=O)[C@H](CC(=O)O)NC(=O)[C@H](CCC(=O)O)NC(=O)[C@H](CSC5)NC(=O)[C@@H](C)NC(=O)[C@H](Cc4cccc5ccccc45)NC(=O)[C@H](CCC(=O)O)NC(=O)[C@H](CC(N)=O)NC(=O)[C@@H](C)NC3=O)nn2)C(C)C)cc1)C(C)C [BT17BDC-62],Ki,[1]; human MT1-MMP,3.9 nM and 3.3 nM
same,Ki,[2],2.1 nM and 1.9 nM
"CC(=O)NCCC(=O)N(C)CC(=O)N(C)CC(=O)N(C)CC(=O)N(C)CC(=O)N(C)CC(=O)N(C)CC(=O)N(C)CC(=O)N(C)CC(=O)N(C)CC(=O)N(C)CC(=O)N[C@@H](C)C(=O)N[C@H]1CNCc2cc3cc(c2)CSC[C@H](NC(=O)[C@@H](C)NC(=O)[C@H](Cc2cccc4ccccc24)NC(=O)[C@H](CCC(=O)O)NC(=O)[C@H](CC(N)=O)NC(=O)[C@@H](C)NC1=O)C(=O)N[C@@H](CCC(=O)O)C(=O)N[C@@H](CC(=O)O)C(=O)N[C@@H](Cc1ccccc1)C(=O)N[C@@H](Cc1ccc(O)cc1)C(=O)N[C@@H](CC(=O)O)C(=O)N[C@@H](C(C)(C)C)C(=O)N[C@H](C(N)=O)CNC3 [17-69-07-N455, Ac-(B-Ala)-Sar10-A(Dap)(D-Ala)NE(1Nal)(D-Ala)CEDFYD(tBuGly)(Dap)]",pKi,"[1]; Binding Affinity Ki (h), human MT1-MMP, bicycle peptides",8.40
"CC(=O)N[C@@H](C)C(=O)N[C@H]1CNCc2cc3cc(c2)CSC[C@H](NC(=O)[C@@H](C)NC(=O)[C@H](Cc2cccc4ccccc24)NC(=O)[C@H](CCC(=O)O)NC(=O)[C@H](CC(N)=O)NC(=O)[C@@H](C)NC1=O)C(=O)N[C@@H](CCC(=O)O)C(=O)N[C@@H](CC(=O)O)C(=O)N[C@@H](Cc1ccccc1)C(=O)N[C@@H](Cc1ccccc1)C(=O)N[C@@H](CC(=O)O)C(=O)N[C@@H](C(C)(C)C)C(=O)N[C@H](C(N)=O)CNC3 [17-69-07-N428, Ac-A(Dap)(D-Ala)NE(1Nal)(D-Ala)CEDFF9D(tBuGly)(Dap)]",pKd,[1],8.46
"CC(=O)N[C@@H](C)C(=O)N[C@H]1CN(C)Cc2cc3cc(c2)CN(C)C[C@H](NC(=O)[C@@H](C)NC(=O)[C@H](Cc2cccc4ccccc24)NC(=O)[C@H](CCC(=O)O)NC(=O)[C@H](CC(N)=O)NC(=O)[C@@H](C)NC1=O)C(=O)N[C@@H](CCC(=O)O)C(=O)N[C@@H](CC(=O)O)C(=O)N[C@@H](Cc1ccccc1)C(=O)N[C@@H](Cc1ccc(O)cc1)C(=O)N[C@@H](CC(=O)O)C(=O)N[C@@H](C(C)(C)C)C(=O)N[C@H](C(N)=O)CSC3 [17-69-07-N470, Ac-A(Dap(Me))(D-Ala)NE(1Nal)(D-Ala)(Dap(Me))EDFYD(tBuGly)C]",pKi,[1],8.08
"CC(=O)N[C@@H](C)C(=O)N[C@H]1CN(C)Cc2cc3cc(c2)CN(C)C[C@@H](C(N)=O)NC(=O)[C@H](C(C)(C)C)NC(=O)[C@H](CC(=O)O)NC(=O)[C@H](Cc2ccc(O)cc2)NC(=O)[C@H](Cc2ccccc2)NC(=O)[C@H](CC(=O)O)NC(=O)[C@H](CCC(=O)O)NC(=O)[C@H](CSC3)NC(=O)[C@@H](C)NC(=O)[C@H](Cc2cccc3ccccc23)NC(=O)[C@H](CCC(=O)O)NC(=O)[C@H](CC(N)=O)NC(=O)[C@@H](C)NC1=O [17-69-07-N426, Ac-A(Dap(Me))(D-Ala)NE(1Nal)(D-Ala)CEDFYD(tBuGly)(Dap(Me))]",pKd,"[1]; competition FP, bicycle peptides, read-out: measured affinity (Kd) to MT1-MMP",9.44
"CC(=O)NCCC(=O)N(C)CC(=O)N(C)CC(=O)N(C)CC(=O)N(C)CC(=O)N(C)CC(=O)N(C)CC(=O)N(C)CC(=O)N(C)CC(=O)N(C)CC(=O)N(C)CC(=O)N[C@@H](C)C(=O)N[C@H]1CN(C)Cc2cc3cc(c2)CN(C)C[C@@H](C(N)=O)NC(=O)[C@H](C(C)(C)C)NC(=O)[C@H](CC(=O)O)NC(=O)[C@H](Cc2ccc(O)cc2)NC(=O)[C@H](Cc2ccccc2)NC(=O)[C@H](CC(=O)O)NC(=O)[C@H](CCC(=O)O)NC(=O)[C@H](CSC3)NC(=O)[C@@H](C)NC(=O)[C@H](Cc2cccc3ccccc23)NC(=O)[C@H](CCC(=O)O)NC(=O)[C@H](CC(N)=O)NC(=O)[C@@H](C)NC1=O [17-69-07-N454, Ac-(B-Ala)-Sar10-A(Dap(Me))(D-Ala)NE(1Nal)(D-Ala)CEDFYD(tBuGly)(Dap(Me))]",pKi,[1]; [5],8.52
"C#CCCC(=O)NCCC(=O)N(C)CC(=O)N(C)CC(=O)N(C)CC(=O)N(C)CC(=O)N(C)CC(=O)N[C@@H](C)C(=O)N[C@H]1CN(C)Cc2cc3cc(c2)CN(C)C[C@@H](C(N)=O)NC(=O)[C@H](C(C)(C)C)NC(=O)[C@H](CC(=O)O)NC(=O)[C@H](Cc2ccc(O)cc2)NC(=O)[C@H](Cc2ccccc2)NC(=O)[C@H](CC(=O)O)NC(=O)[C@H](CCC(=O)O)NC(=O)[C@H](CSC3)NC(=O)[C@@H](C)NC(=O)[C@H](Cc2cccc3ccccc23)NC(=O)[C@H](CCC(=O)O)NC(=O)[C@H](CC(N)=O)NC(=O)[C@@H](C)NC1=O [17-69-07-N472, (PYA)-(B-Ala)-Sar5-A(Dap(Me))(D-Ala)NE(1Nal)(D-Ala)CEDFYD(tBuGly)(Dap(Me))]",pKi,[1]; [5],8.47

# Reference: patent US11730819B2, “Peptide derivatives having novel linkage structures” (priority 2016, dated 2023)
